Our source for the TGI and GI50 values is PubChem BioAssay (NCI).

What all share (assay): DTP human tumour cell line panel, 48 h
The subject of assay [1] is SW-620 colon.
Assay [2] deals with UACC-62 melanoma.
Assay [3] deals with SK-MEL-2 melanoma.
Assay [4] has as its system OVCAR-4 ovarian.
Assay [5] deals with 786-0 renal.
Assay [6] has as its system SK-OV-3 ovarian.
Assay [7] has as its system SNB-75 CNS.
The subject of assay [8] is RPMI-8226 leukemia.
Assay [9] relates to SNB-19 CNS.
Assay [10] has as its system UACC-257 melanoma.

Molecules are shown by their SMILES. Where “and” joins values, the source holds several entries; their conditions need not be identical. Identical values can stand only once.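 Assay format: 96-well plates, 48-hour exposure. GI50 = concentration required for 50% inhibition of growth. TGI is the concentration that stops growth completely.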

A word on the TGI: it is the concentration giving total growth inhibition. A lower TGI goes with more potent growth arrest. Consider `NC(Cc1ccccc1)c1nccs1` (configuration not stated), for which the TGI in [1], in assay [2], in [3], in [4], in [5] and in assay [6] was greater than 100 µM each time. The TGI in [7], in assay [8], in [9] and in assay [10] was greater than 100 µM in each case.

With `COc1ccc2c(c1)CN1CCc3c(cc(OC)c(OC)c3OC)C1C2` (configuration not stated), the total growth inhibition concentration (TGI) in assay [1], in assay [2], in assay [3], in [4], in assay [5] and in assay [6] was greater than 100 µM in each case. Also, the TGI in [7], in assay [8], in [9] and in assay [10] was greater than 100 µM throughout.

As to `C/C=C(\C)C(=O)OC1/C=C(\C)CC/C=C(\C)CC2OC(=O)C(C)(OC(C)=O)C12` (configuration not stated), the TGI in assay [1], in assay [2], in assay [3], in assay [4], in assay [5] and in assay [6] was greater than 100 µM throughout. Besides, the TGI in assay [7], in [8], in assay [9] and in [10] was greater than 100 µM throughout.

Take `CC1=NOC(=O)/C1=C/c1ccc2c(c1)OCO2`: the TGI in [1] is 60.9 µM; in assay [2], 43.5 µM; in [3], 39 µM; in assay [4], greater than 100 µM; in assay [5], 46.6 µM; in assay [6], greater than 100 µM. The TGI in assay [7] is 57.5 µM; in assay [8], 55.2 µM; in assay [9] it was 95 µM; in assay [10] it was greater than 100 µM.

On to `CNC(=O)CN(CC(=O)O)C(=O)NC`, for which the TGI in assay [1], in [2], in assay [3], in [4], in assay [5] and in [6] was greater than 100 µM throughout. For the same compound, the TGI in assay [7], in [8], in [9] and in assay [10] was greater than 100 µM in each case.

As to `C[C@H]1C=C2C(=O)O[C@H]3CC[C@@H](C1)[C@@]23O`, the TGI is 10.3 µM in assay [1]; 13.2 µM in assay [2]; 10.1 µM in [3]; 24.4 µM in assay [4]; 12.2 µM in assay [5]; 22.4 µM in assay [6]. Also, the TGI is 19.5 µM in assay [7], greater than 100 µM in assay [8], 30.6 µM in assay [9] and 22.9 µM in assay [10].

The term GI50 denotes the concentration that inhibits growth by half. `CC[PH+](CC)CC.[Cl][Au]`: the GI50 in assay [1] is 0.567 µM; in [2], 1160 nM; in [3], 1.38 µM; in assay [4], 1.47 µM; in assay [5] it was 1.42 µM; in assay [6] it was 16.4 µM. The GI50 in assay [7] was 2.3 µM; in assay [8], 1.03 µM; in assay [9] it was 2.26 µM; in assay [10], 1.09 µM. The TGI was found to be 1.98 µM in assay [1]; 2.63 µM in [2]; 2.95 µM in assay [3]; 2.97 µM in assay [4]; 2.74 µM in assay [5]; 30 µM in assay [6]. The TGI in assay [7] amounted to 6.99 µM; in assay [8], 3.84 µM; in assay [9], 6.14 µM; in assay [10], 2.36 µM.

`COC(=O)CC[C@]12C[C@]13CC[C@]1(C)C4C(C)C[C@]5(CC(C)C(=O)O5)OC4CC1(C)C3CCC2C(C)(C)O` (some centres not stated): the TGI is greater than 100 µM in [1]; 82.6 µM in assay [3]; greater than 100 µM in [4]; greater than 100 µM in assay [5]; greater than 100 µM in [6]; greater than 100 µM in [7]. Also, the values for the concentration for total growth inhibition (TGI) in assay [8], in [9] and in assay [10] were 98.7 µM, greater than 100 µM and greater than 100 µM, respectively.

Consider `COC(=O)[C@H](Cc1cn(C)cn1)NC(=O)[C@H](Cc1ccccc1)NC(=O)Nc1cc(C(F)(F)F)cc(C(F)(F)F)c1`, for which the GI50 in assay [1] was 14.5 µM; in assay [3], 17.7 µM; in assay [4] it was 13.8 µM; in assay [5] it was 16.8 µM; in [6] it was 19.2 µM; in assay [7] it was 15.6 µM. Moreover, the GI50 in [8] was 7.49 µM and 11 µM; in [9], 14.2 µM; in [10] it was 16.1 µM. For the same compound, the TGI was found to be 30.6 µM in assay [1]; 32.3 µM in assay [3]; 28.5 µM in [4]; 31.9 µM in assay [5]; 33.3 µM in [6]; 30 µM in assay [7]. The TGI was 31.5 µM in assay [8], 28.3 µM in assay [9] and 30.1 µM in [10].
